For the test, the system named is gray mold fungus (Botrytis cinerea). Kind of test: Cucumber leaf disk preventive test against gray mold fungus. Type of test: in vivo. Conditions: 15° C., six days. The method, then:
True leaf of cucumber was punched out with cork borer to 13 mm in diameter to prepare a leaf disk. In 24 well microwell plate that was dispensed with 1 ml 0.8% water agar, the leaf disk was placed such that the upper side of the leaf was in an upward direction. […] Control where 20 micro liter ion-exchange water was spread was prepared (for non-treated group). After confirming that the spray solution was dried, conidium of gray mold fungus (Botrytis cinerea) was suspended into potato dextrose broth (DIFCO) in a density of about 10^5 conidia/mL and was then subjected to a spray inoculation. After leaving to stand the leaf disk in a growth chamber set up at 15° C. for six days, an onset area on each leaf was measured and a preventive value was then calculated by the following equation 1.
The same above operations were carried out using the present diamide compound (2c) or the present diamide compound (3) instead of the present diamide compound (2b), so as to obtain the respective preventive values. Preventive value(%)=100×(A−B)/A (Equation 1)
A: an onset area rate of plant belonging to non-treated group
B: an onset area rate of plant belonging to treated Group onset area rate=(onset area of the leaf disk)/(the total area of the leaf disk) […]

Experimental findings from US8846720B2, “Pest controlling composition and method for controlling pest” (Sumitomo Chemical Company, Limited, priority 2010, dated 2014) are described below.

Each structure is given as a SMILES string.

Regarding `CNC(=O)C(OC)c1ccccc1COc1cc(C)ccc1C` (centres unmarked) [the present amide compound], the “preventive value (%)” value reads like this: (the present amide compound alone 1.0 ppm (dimethyl sulfoxide solution)) 46%; (the present amide compound alone 2.5 ppm (dimethyl sulfoxide solution)) 56%.
